Test results published in patent publication US9546153B2, “Bicyclic heterocycle substituted pyridyl compounds useful as kinase modulators” (BRISTOL-MYERS SQUIBB COMPANY, priority 2012, dated 2017).
Several values for one entry are separate records, joined by “and”; a condition that tells them apart may be missing. Equal entries are not always repeated. Where two headings read alike, the source gives them in different places.

Experiments:
[1] = target: IRAK4 (Homo sapiens (Human), UniProt Q9NWZ3); experiment: IRAK4 Inhibition Assay; type: biochemical; conditions: ATP 500 μM; IRAK4 0.6 nM; 60 min at room temperature
IRAK4, sequence (Q9NWZ3 whole entry, species assumed): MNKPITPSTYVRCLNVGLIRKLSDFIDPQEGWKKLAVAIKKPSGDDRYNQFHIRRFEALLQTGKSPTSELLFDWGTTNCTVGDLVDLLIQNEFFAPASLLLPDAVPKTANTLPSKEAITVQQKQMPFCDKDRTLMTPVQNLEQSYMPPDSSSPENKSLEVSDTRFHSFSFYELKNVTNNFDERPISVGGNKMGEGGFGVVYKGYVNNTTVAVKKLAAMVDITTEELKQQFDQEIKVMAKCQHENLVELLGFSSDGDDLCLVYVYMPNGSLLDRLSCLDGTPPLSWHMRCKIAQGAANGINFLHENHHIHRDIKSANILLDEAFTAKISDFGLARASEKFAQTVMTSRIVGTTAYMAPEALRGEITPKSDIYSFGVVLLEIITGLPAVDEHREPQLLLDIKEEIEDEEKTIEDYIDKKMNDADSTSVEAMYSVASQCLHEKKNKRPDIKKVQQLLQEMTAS
Description: The assays were performed in U-bottom 384-well plates. […] The reaction was initiated by the combination of IRAK4 with substrates and test compounds. The reaction was incubated at room temperature for 60 min. and terminated by adding 45 μL of 35 mM EDTA to each sample. The reaction mixture was analyzed on the Caliper LABCHIP® 3000 (Caliper, Hopkinton, Mass.) by electrophoretic separation of the fluorescent substrate and phosphorylated product.

[2] = tested on: TLR2 induced IL-6 in peripheral blood mononuclear cells (PBMCs); experiment: PBMC TLR2 Induced IL-6 Assay; type: cell-based, human; conditions: human PBMCs, 10 μg/ml lipoteichoic acid for 5 hours, IL-6 by ELISA; for IC50: value without asterisk, read-out: Cell IC50; for EC50: EC50 determinations are indicated with an asterisk, read-out: Cell EC50 (asterisk)
Description: Peripheral blood mononuclear cells (PBMCs) were isolated from human blood containing the anti-coagulant EDTA (2.5 mM) by centrifugation over a FICOLL® gradient. PBMCs (250000 cells/well) were cultured in assay media (RPMI with 10% heat inactivated FCS) with compounds for 30 minutes at 37° C. in a 5% CO2 incubator. Following pretreatment with compounds, cells were stimulated for 5 hours with 10 μg/ml lipoteichoic acid (Invivogen, San Diego, Calif.), a TLR2 agonist. At the end of the culture, plates were centrifuged at 1800 rpm for 10 minutes to pellet the cells. Supernatants were harvested and analyzed for IL-6 levels by ELISA (BD Biosciences, San Jose, Calif.). Inhibition was calculated as either an IC50 or EC50. EC50 determinations are indicated with an asterisk.

SMILES	IC50 [1]	IC50 ([2]; Homo sapiens, PBMC, 5 h) [nM]	IC50 [2] [nM]	EC50 ([2]; Homo sapiens, PBMC, 5 h) [nM]
CC(C)(O)[C@H](F)CNC(=O)c1cnc(Nc2ccc3ncsc3c2)cc1NCCc1ccccc1 [Example 165]	9 nM	386		
CC(C)C(O)[C@H](F)CNC(=O)c1cnc(Nc2ccc3ncsc3c2)cc1NC1CC1 (stereo partly drawn) [Example 25]	3.5 nM		60	
CC(C)(O)[C@H](F)CNC(=O)c1cnc(Nc2ccc3ncsc3c2)cc1NCC1CCCO1 (stereo partly drawn) [Example 94]	13 nM		339	
CCCNC(=O)c1ccc(Nc2cc(Nc3ccc4ncsc4c3)ncc2C(=O)NC[C@@H](F)C(C)(C)O)cc1 [Example 326]	12.9 nM	437		
CC(C)(O)[C@H](F)CNC(=O)c1cnc(Nc2ccc3ncc(C#N)cc3n2)cc1NC1CCCOC1 (stereo partly drawn) [Example 442]	5.6 nM	106		
CC(C)(O)[C@H](F)CNC(=O)c1cnc(Nc2nc3ccnn3cc2F)cc1NC1CCC(F)(F)C1 (stereo partly drawn) [Example 391]	2.5 nM		119	
CC(C)(O)[C@H](F)CNC(=O)c1cnc(Nc2ccc3ncsc3c2)cc1NC1CCCC1(F)F (stereo partly drawn) [Example 358]	2.4 nM	48		
CC(C)(O)[C@H](F)CNC(=O)c1cnc(Nc2ccc3ncsc3c2)cc1NC1CC(CO)C1 (stereo partly drawn) [Example 69]	3.4 nM	365		
CN1CCCC1CCNC(=O)c1cnc(Nc2ccc3ncsc3c2)cc1NC1CCCC1 (stereo not drawn) [Example 149]	3.8 nM	386		
CNC(=O)c1cnc(Nc2ccc3ncsc3c2)cc1NC1C2CC3CC1CC(O)(C3)C2 (single isomer, unassigned) [Example 146]	53.9 nM	550		
CC(C)(O)[C@H](F)CNC(=O)c1cnc(Nc2ccc3nccn3n2)cc1NC1CCCC1F (stereo partly drawn) [Example 274]	2.8 nM		712	
CC(C)Nc1cc(Nc2ccc3ncsc3c2)ncc1C(=O)N[C@H]1CC[C@H](C(=O)NC2CC2)CC1 [Example 227]	2.7 nM	138		
CC(C)(O)[C@H](F)CNC(=O)c1cnc(Nc2ccc3ncsc3c2)cc1Nc1ccc(C(=O)NC2CC2)cc1 [Example 321]	6.4 nM	1140		
CC(C)NC(=O)N[C@H]1CC[C@H](NC(=O)c2cnc(Nc3ccc4ncsc4c3)cc2NC(C)C)CC1 [Example 206]	2.1 nM	139		
CC(C)(O)[C@H](F)CNC(=O)c1cnc(Nc2ccc3nccnc3c2)cc1NC1CC2CCC1C2 (stereo partly drawn) [Example 95]	1.9 nM	58		
CC(C)Nc1cc(Nc2ccc3ncsc3c2)ncc1C(=O)N[C@H]1CC[C@H](NS(C)(=O)=O)CC1 [Example 204]	2.6 nM	252		
CCNc1cc(Nc2ccc3ncc(F)cc3n2)ncc1C(=O)NC[C@@H](F)C(C)(C)O [Example 437]	4.9 nM	214		
CC(C)(O)[C@H](F)CNC(=O)c1cnc(Nc2ccc3ncsc3c2)cc1NCCN1CCOCC1 [Example 164]	34.9 nM	388		
CC(C)(O)[C@H](F)CNC(=O)c1cnc(Nc2nc3ccnn3cc2F)cc1NC1CCOCC1 [Example 369]	8.1 nM	859		
CNC(=O)c1cnc(Nc2nc3ccc(Cl)nc3s2)cc1NC(C)C [Example 4, 6-(5-chlorothiazolo[5,4-b]pyridin-2-ylamino)-4-(isopropylamino)-N-methylnicotinamide]	18.2 nM	639		
CC(C)(O)[C@H](F)CNC(=O)c1cnc(Nc2ccc3ncsc3c2)cc1NC12CCC(NC(=O)c3cccnc3)(CC1)C2 [Example 395]	4.4 nM	333		
CC(C)Nc1cc(Nc2ccc3ncc(Cl)cc3n2)ncc1C(=O)NC[C@@H](F)C(C)(C)O [Example 374]	3.1 nM	271		
CC(C)Nc1cc(Nc2ccc3ncsc3c2)ncc1C(=O)NC12CCC(N)(CC1)CC2 [Example 223]	4.2 nM	238		
CC1COCCC1Nc1cc(Nc2ccc3ncsc3c2)ncc1C(=O)NC[C@@H](F)C(C)(C)O (stereo partly drawn) [Example 234]	4.4 nM and 3.2 nM			
CCNc1cc(Nc2nc3ccnn3cc2F)ncc1C(=O)NC1CCC(C(C)(C)O)CC1 (stereo not drawn) [Example 492]	12.1 nM			454
Cc1nn2ccc(Nc3cc(NCC(C)(C)F)c(C(=O)NC[C@@H](F)C(C)(C)O)cn3)cc2c1F [Example 300]	4.4 nM	294		
CC(C)(O)[C@H](F)CNC(=O)c1cnc(Nc2ccc3nccn3n2)cc1NC1CC1 [Example 85]	5.1 nM	195		

SMILES	IC50 [1]	IC50 ([2]; Homo sapiens, PBMC, 5 h) [nM]	IC50 [2] [nM]	EC50 ([2]; Homo sapiens, PBMC, 5 h) [nM]
CCNC(=O)[C@H]1CC[C@H](NC(=O)c2cnc(Nc3ccc4ncsc4c3)cc2NC(C)C)CC1 [Example 225]	3.3 nM	535		
CC(O)[C@H](F)CNC(=O)c1cnc(Nc2ccc3ncsc3c2)cc1NC1CCCC1 (stereo partly drawn) [Example 29]	9.2 nM		128	
CC(C)Nc1cc(Nc2ccc3ncsc3c2)ncc1C(=O)N[C@H]1CC[C@H](C(=O)NC2(C#N)CC2)CC1 [Example 213]	3.1 nM	403		
CC(O)[C@H](F)CNC(=O)c1cnc(Nc2ccc3ncsc3c2)cc1NC1CCCC1 (stereo partly drawn) [Example 28]	7.8 nM	195		
CC(C)(O)[C@H](F)CNC(=O)c1cnc(Nc2ccc3ncc(C#N)cc3n2)cc1NC1CCC(F)(F)C1 (stereo partly drawn) [Example 407]	2.7 nM		260	
Cc1cn2nccc2cc1Nc1cc(NC(C)C)c(C(=O)NC[C@@H](F)C(C)(C)O)cn1 [Example 487]	8.1 nM			632
CC(C)(O)[C@H](F)CNC(=O)c1cnc(Nc2ccc3ncsc3n2)cc1NC1CCOCC1F (stereo partly drawn) [Example 417]	10.9 nM		72	
CC(C)Nc1cc(Nc2cc(F)c3ncsc3c2)ncc1C(=O)NC[C@@H](F)C(C)(C)O [Example 120]	5.9 nM	459		
CC(C)(O)[C@H](F)CNC(=O)c1cnc(Nc2ccc3ncsc3c2)cc1NC12CCC(NS(=O)(=O)c3ccccc3)(CC1)C2 [Example 401]	12.6 nM	328		
CC(C)(C)CNc1cc(Nc2ccc3nccn3n2)ncc1C(=O)NC[C@@H](F)C(C)(C)O [Example 275]	3.1 nM	335		
CC(C)(O)[C@H](F)CNC(=O)c1cnc(Nc2ccn3nccc3n2)cc1NC1CC2CC2C1(F)F (stereo partly drawn) [Example 452]	2.5 nM	239		
Cc1cc2nc(Nc3cc(NC(C)C)c(C(=O)NC[C@@H](F)C(C)(C)O)cn3)ccn2n1 [Example 379]	6.3 nM			
CC(C)Nc1cc(Nc2ccn3ncc(Cl)c3n2)ncc1C(=O)NC[C@@H](F)C(C)(C)O [Example 262]	2.9 nM		141	
CC(C)(O)[C@H](F)CNC(=O)c1cnc(Nc2ccc3ncsc3c2)cc1NC1CCC(F)C1 (single isomer, unassigned) [Example 365, 6-(benzo[d]thiazol-6-ylamino)-N-(2-fluoro-3-hydroxy-3-methylbutyl)-4-(3-fluorocyclopentylamino)nicotinamide]	5.8 nM		97	
CC(F)CNc1cc(Nc2ccc3ncsc3c2)ncc1C(=O)NC[C@@H](F)C(C)(C)O (stereo partly drawn) [Example 450]	1.7 nM	217		
CC(C)(F)CNc1cc(Nc2ccc3ncc(C#N)cc3n2)ncc1C(=O)NC[C@@H](F)C(C)(C)O [Example 373]	5.1 nM	431		
CC(C)Nc1cc(Nc2ccc3ncsc3c2)ncc1C(=O)NCC[C@@H](C)NC(=O)[C@@H]1CCC(F)(F)C1 [Example 186]	2.4 nM	361		
CC(C)(O)[C@H](F)CNC(=O)c1cnc(Nc2ccc3ncsc3c2)cc1N[C@H](CO)c1ccccc1 [Example 63]	8.6 nM	632		
CC(C)(O)[C@H](F)CNC(=O)c1cnc(Nc2ccc3ncccc3c2)cc1NC1CC1 [Example 58]	7 nM	545		
CC(C)(O)[C@H](F)CNC(=O)c1cnc(Nc2ccc3ncoc3c2)cc1N[C@@H]1CCCC1F (stereo partly drawn) [Example 355]	2.2 nM		236	
CC(C)Nc1cc(Nc2ccc3ncsc3c2)ncc1C(=O)NC[C@@H](F)C(C)(O)C(F)(F)F (stereo partly drawn) [Example 18]	6.9 nM		269	
CNC(=O)c1cc(F)c(Nc2cc(Nc3ccc4ncsc4c3)ncc2C(=O)NC[C@@H](F)C(C)(C)O)cc1F [Example 78]	8.6 nM	282		
CC(C)(O)[C@H](F)CNC(=O)c1cnc(Nc2cc3scnc3cc2F)cc1NC1CCOCC1 [Example 520]	2.5 nM	1060		
CC(C)(O)[C@@H](F)CNC(=O)c1cnc(Nc2ccc3ncsc3c2)cc1NC1CC1 [Example 366, (S)-6-(benzo[d]thiazol-6-ylamino)-4-(cyclopropylamino)-N-(2-fluoro-3-hydroxy-3-methylbutyl)nicotinamide]	9.3 nM	734		
CC(C)(O)[C@H](F)CNC(=O)c1cnc(Nc2ccc3ncsc3c2)cc1Nc1ccc(-c2cc[nH]n2)cc1 [Example 414]		256		
N#CCNC(=O)c1cnc(Nc2ccc3ncsc3c2)cc1NC1CCCC1 [Example 153]		510		
